In ChEMBL document CHEMBL1201862, “PubChem BioAssay data set” (2004):
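Growth conditions: 96-well plates. Treatment: test compound, 48 hours, 5 concentrations. Analysis: linear interpolation between bracketing concentrations; unreached endpoints set to highest concentration. GI50 marks 50% less growth.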 Calls of active or inactive are those of the source. Cut-off read from the data, not from the text of the source: active = GI50 up to about 1.1 µM and inactive = higher.

Assays:
Assay in all cases: DTP human tumour cell line panel, 48 h
OVCAR-5 = tested on: OVCAR-5
ACHN = tested on: ACHN
MDA-MB-435 = tested on: MDA-MB-435
T47D = tested on: T47D
SK-OV-3 = tested on: SK-OV-3
U-251 = tested on: U-251
MDA-N = tested on: MDA-N
NCI-H23 = tested on: NCI-H23
HCT-15 = tested on: HCT-15
EKVX = tested on: EKVX
HL-60 = tested on: HL-60
SNB-19 = tested on: SNB-19
OVCAR-3 = tested on: OVCAR-3
DU-145 = tested on: DU-145
SR = tested on: SR
HCC 2998 = tested on: HCC 2998
CAKI-1 = tested on: CAKI-1
MOLT-4 = tested on: MOLT-4

Measured: GI50

Cc1ccccc1NC(=S)N/N=C1\C(=O)Nc2ccccc21
inactive: OVCAR-5 > 100 µM | ACHN > 100 µM | MDA-MB-435 > 100 µM | T47D > 100 µM | SK-OV-3 > 100 µM | U-251 > 100 µM | MDA-N > 100 µM | NCI-H23 > 100 µM | EKVX > 100 µM | HL-60 > 100 µM | SNB-19 > 100 µM | OVCAR-3 > 100 µM | DU-145 31.4 µM | SR 70.6 µM | HCC 2998 > 100 µM | CAKI-1 > 100 µM | MOLT-4 > 100 µM
> 100 µM: HCT-15

CCCCCC(/C=N/Nc1ccccc1)C(O)(C(F)(F)F)C(F)(F)F (configuration not stated)
inactive: OVCAR-5 > 100 µM | ACHN > 100 µM | MDA-MB-435 > 100 µM | T47D > 100 µM | SK-OV-3 > 100 µM | U-251 > 100 µM | MDA-N > 100 µM | NCI-H23 > 100 µM | EKVX > 100 µM | HL-60 > 100 µM | SNB-19 > 100 µM | OVCAR-3 > 100 µM | DU-145 > 100 µM | SR > 100 µM | HCC 2998 > 100 µM | CAKI-1 > 100 µM | MOLT-4 61.8 µM
> 100 µM: HCT-15

COc1ccc2c(CCNS(=O)(=O)c3ccccc3)c(C(C)=O)[nH]c2c1
inactive: OVCAR-5 > 88.9 µM | ACHN 3.15 µM | MDA-MB-435 12.3 µM | T47D > 52.2 µM | SK-OV-3 > 80.9 µM | U-251 > 74.3 µM | MDA-N > 71.3 µM | NCI-H23 8.3 µM | EKVX > 100 µM | HL-60 > 75.3 µM | SNB-19 66.7 µM | OVCAR-3 > 100 µM | DU-145 > 80.2 µM | SR 64.6 µM | HCC 2998 > 100 µM | MOLT-4 48.8 µM
> 75.2 µM: HCT-15
active: CAKI-1 1 µM

O=[N+]([O-])c1ccc(Cl)c(/C=N/C23CC4CC(CC(C4)C2)C3)c1
inactive: OVCAR-5 > 10 µM | ACHN > 10 µM | MDA-MB-435 > 6.34 µM | T47D > 10 µM | SK-OV-3 > 10 µM | U-251 > 7.48 µM | MDA-N > 8.13 µM | NCI-H23 > 10 µM | EKVX > 10 µM | HL-60 2.05 µM | SNB-19 > 10 µM | OVCAR-3 > 9.48 µM | DU-145 > 10 µM | SR 4.1 µM | HCC 2998 > 10 µM | CAKI-1 > 10 µM | MOLT-4 5.18 µM
> 6.46 µM: HCT-15

CCOC(=O)/C=C\C(C#N)(C#N)/N=C/c1ccsc1
active: SR 1.04 µM
2.96 µM: HCT-15
inactive: OVCAR-5 18.2 µM | ACHN 2.91 µM | MDA-MB-435 2.39 µM | T47D 2 µM | SK-OV-3 20.8 µM | U-251 17.1 µM | MDA-N 8.91 µM | NCI-H23 9.68 µM | EKVX 16.5 µM | HL-60 2 µM | SNB-19 23.1 µM | OVCAR-3 2.54 µM | DU-145 16.5 µM | HCC 2998 16 µM | CAKI-1 2.25 µM | MOLT-4 1.21 µM

COc1ccc(/C=N/Nc2nc3ccccc3c(=O)n2-c2ccccc2)cc1
inactive: OVCAR-5 > 100 µM | ACHN > 100 µM | MDA-MB-435 > 100 µM | T47D > 100 µM | SK-OV-3 > 100 µM | U-251 > 100 µM | MDA-N > 100 µM | NCI-H23 55.6 µM | EKVX > 100 µM | HL-60 > 100 µM | SNB-19 > 100 µM | OVCAR-3 > 100 µM | DU-145 > 100 µM | SR 60.7 µM | HCC 2998 > 100 µM | CAKI-1 > 100 µM | MOLT-4 > 100 µM
> 100 µM: HCT-15

O=C(O)CN(CC(=O)O)Cc1ccn(-c2cccc(-n3ccc(CN(CC(=O)O)CC(=O)O)n3)n2)n1
> 100 µM: HCT-15
inactive: OVCAR-5 > 100 µM | ACHN > 100 µM | MDA-MB-435 3.53 µM | T47D > 100 µM | SK-OV-3 > 100 µM | U-251 21.1 µM | MDA-N > 100 µM | EKVX > 100 µM | SNB-19 > 100 µM | OVCAR-3 > 100 µM | DU-145 > 100 µM | SR > 100 µM | HCC 2998 > 100 µM | CAKI-1 > 100 µM | MOLT-4 > 100 µM
active: NCI-H23 < 0.01 µM | HL-60 < 0.01 µM

CC(C)OP(=O)(OC(C)C)/C(C#N)=C/c1ccco1
inactive: OVCAR-5 > 100 µM | ACHN > 100 µM | MDA-MB-435 > 100 µM | T47D > 100 µM | SK-OV-3 > 100 µM | U-251 > 100 µM | MDA-N > 100 µM | NCI-H23 > 100 µM | EKVX > 100 µM | HL-60 > 100 µM | SNB-19 > 100 µM | OVCAR-3 > 100 µM | DU-145 > 100 µM | SR > 100 µM | HCC 2998 > 100 µM | CAKI-1 > 100 µM | MOLT-4 > 100 µM
> 100 µM: HCT-15

COC(=O)c1c(O)ccc2c1c1c(n2Cc2cc(OC)cc(OC)c2)C(=O)c2ccccc2C1=O
3.93 µM: HCT-15
inactive: OVCAR-5 21 µM | ACHN 5.04 µM | MDA-MB-435 2.67 µM | T47D 10.9 µM | SK-OV-3 6.52 µM | U-251 8.26 µM | MDA-N 3.85 µM | NCI-H23 8.28 µM | EKVX 11.6 µM | HL-60 7.5 µM | SNB-19 24.4 µM | OVCAR-3 7.87 µM | DU-145 21 µM | SR 2.44 µM | HCC 2998 2.72 µM | CAKI-1 18.7 µM | MOLT-4 4.42 µM

COC1=CC(=O)c2c(c(-c3nc(C)cs3)cn2C)C1=O
inactive: OVCAR-5 6.76 µM | ACHN 4.73 µM | T47D 20.1 µM | SK-OV-3 41.2 µM | U-251 4.67 µM | NCI-H23 2.25 µM | EKVX 8.65 µM | HL-60 1.46 µM | SNB-19 4.23 µM | OVCAR-3 1.75 µM | DU-145 3.76 µM | SR 4.95 µM | HCC 2998 4.28 µM | CAKI-1 5.97 µM | MOLT-4 15.2 µM
1.28 µM: HCT-15
active: MDA-MB-435 0.409 µM | MDA-N 0.931 µM

COc1cc2cc(C(=O)N3CC(CCl)c4c3cc(NC(=O)C(C)(C)c3ccccc3[N+](=O)[O-])c3ccccc43)[nH]c2c(OC)c1OC (configuration not stated)
active: ACHN 0.385 µM | U-251 0.54 µM | NCI-H23 0.524 µM | DU-145 0.147 µM | SR 0.192 µM | CAKI-1 0.0687 µM
inactive: OVCAR-5 2.77 µM | MDA-MB-435 1.75 µM | T47D 4.73 µM | SK-OV-3 2.75 µM | MDA-N 5.12 µM | EKVX 11.7 µM | HL-60 1.36 µM | SNB-19 4.36 µM | OVCAR-3 82 µM | HCC 2998 6.15 µM | MOLT-4 1.71 µM
1.98 µM: HCT-15

CC[C@H]1C=CCC[C@@]2(C[C@@H]3CC[C@@H]4[C@H](C(=O)OCCCCCCCCCCCCCCCC(=O)O)[C@]5(CCC[C@@H](C)O5)NC(=[N+]34)N2)O1 [CRAMBESCIDIN 657]
0.525 µM: HCT-15
inactive: SK-OV-3 5.38 µM | EKVX 1.39 µM
active: OVCAR-5 0.221 µM | ACHN 0.175 µM | MDA-MB-435 0.141 µM | T47D 0.32 µM | U-251 0.183 µM | MDA-N 0.189 µM | NCI-H23 0.488 µM | HL-60 0.151 µM | SNB-19 0.365 µM | OVCAR-3 0.301 µM | DU-145 0.191 µM | SR 0.0521 µM | HCC 2998 0.0973 µM | CAKI-1 0.182 µM | MOLT-4 0.109 µM

COc1ccc(/C=C2\C[C@H]3[C@@H]4CC=C5C[C@@H](OC(C)=O)CC[C@]5(C)[C@H]4CC[C@]3(C)C2=O)cc1OC
inactive: OVCAR-5 41 µM | ACHN 49.5 µM | MDA-MB-435 48.4 µM | T47D 35.7 µM | MDA-N 39.9 µM | NCI-H23 70 µM | EKVX 15.7 µM | HL-60 16.7 µM | SNB-19 54.8 µM | OVCAR-3 > 100 µM | DU-145 > 100 µM | SR 24.7 µM | HCC 2998 58.3 µM | CAKI-1 22.5 µM | MOLT-4 5.9 µM
68.9 µM: HCT-15

O=C1OC(c2ccccc2)=N/C1=C\c1ccc(F)cc1
inactive: OVCAR-5 > 100 µM | ACHN > 100 µM | MDA-MB-435 > 100 µM | T47D > 100 µM | SK-OV-3 > 100 µM | U-251 89.7 µM | MDA-N > 100 µM | NCI-H23 > 100 µM | EKVX > 100 µM | HL-60 > 100 µM | SNB-19 > 100 µM | OVCAR-3 22.2 µM | DU-145 > 100 µM | SR > 100 µM | HCC 2998 > 100 µM | CAKI-1 > 100 µM | MOLT-4 50.6 µM
> 100 µM: HCT-15

O=C(NNCc1ccco1)c1cc2ccccc2[nH]1
inactive: OVCAR-5 > 100 µM | ACHN > 54.7 µM | MDA-MB-435 > 85.5 µM | T47D 13.5 µM | SK-OV-3 > 56 µM | MDA-N > 100 µM | NCI-H23 > 61.9 µM | EKVX 61.5 µM | HL-60 > 29.1 µM | SNB-19 > 80.2 µM | OVCAR-3 > 55.6 µM | DU-145 > 100 µM | SR > 78.9 µM | HCC 2998 > 36.9 µM | CAKI-1 > 100 µM | MOLT-4 > 100 µM
> 87.5 µM: HCT-15
